In general, Kd refers to a measure of binding affinity in units of concentration. Higher therefore signals a looser complex.

Holding throughout (assay type): binding
Test [1] concerns the target T1, lysosomal acid α-glucosidase (rhGAA) (Homo sapiens, UniProt P10253).
T1 construct: gene GAA; recombinant human GAA (Myozyme)
Put plainly: DSF thermal shift at […], pH […]. Conditions: read-out: delta_Tm.

Test [2] has as its target T1, lysosomal acid α-glucosidase (rhGAA). Briefly: DSF thermal shift at […], pH […]. The settings on record: read-out: delta_Tm. This is another data set of the same source.
Test [3] shares this target. Briefly: DSF (SYPRO Orange) titration at pH […] with Kd from cooperative model fit.
The target is the same in test [4]. Briefly: DSF thermal shift, dose-dependent; rescue of rhGAA activity at pH […]. The settings on record: read-out: delta_Tm.

With `OC[C@H]1NC[C@H](O)[C@@H](O)[C@@H]1O` [compound 1, DNJ], the ΔTm at 100 µM in test [1] is 12.1 °C.
As for `CC(=O)N[C@@H](CS)C(=O)O` [compound 3, N-acetylcysteine], the ΔTm at 10000 µM in test [2] was 9.6 ± 0.2 °C.
In turn, `C[N+](C)(C)C[C@H](O)CC(=O)[O-]` [compound 6, L-carnitine] came in with a dissociation constant Kd in test [3] of 9.16 ± 1.02 mM.
Regarding `C[N+](C)(C)C[C@@H](O)CC(=O)[O-]` [compound 7, D-carnitine], the ΔTm at 5000 µM in test [4] came to 4.9 ± 0.1 °C.

(Values after publication PMC8477953, “Carnitine is a pharmacological allosteric chaperone of the human lysosomal α-glucosidase” (Journal of Enzyme Inhibition and Medicinal Chemistry, 2021).)
